Measured values published in patent US5631247A, “Compounds and compositions with nitrogen-containing non-basic side chains” (Eli Lilly and Company, priority 1996, dated 1997).
Values joined by “and” are separate entries in the source; they are usually repeats but may differ in a detail not shown here. Identical values can stand only once.

What was measured:
uterus = assay: Wet uterine weight in ovariectomized rats (four day dosing); assay type: in vivo, female Sprague Dawley rats; settings: Rattus norvegicus, po, 96 h, daily for 4 days, increase vs OVX control, read-out: Uterine Weight (% inc. OVX)
Experimental: (§1) In the examples illustrating the methods, a post-menopausal model was used in which effects of different treatments upon various biological parameters were determined, including serum cholesterol concentration, uterine weight, eosinophil peroxidase activity, MCF-7 cell proliferation, and bone density.
(§2) Animals were dosed daily for 4 days. […] A blood sample was collected by cardiac puncture.
(§3) Data presented in Table 1 below show comparative results among control ovariectomized rats, rats treated with EE2, and rats treated with certain compounds of the present invention. […] This uterine response to estrogen is well recognized in the art.
(§4) The data presented in Table 1 reflect the response of 5 to 6 rats per treatment.

eosinophil peroxidase = assay: Uterine eosinophil peroxidase (EPO) assay in ovariectomized rats (four day dosing); assay type: in vivo, female Sprague Dawley rats; parameters: Uterine EPO (Vmax): unit not given here; settings: oral, daily for 4 days, OVX rats
Experimental: as §1, §2, §4

[1] = test system: MCF-7 breast adenocarcinoma cells; assay: MCF-7 proliferation assay (tritiated thymidine); assay type: cell-based; settings: Homo sapiens, MCF7, 48 hours with drug, read-out: ED50 (the source's name)
Experimental: MCF-7 breast adenocarcinoma cells (ATCC HTB 22) were maintained in MEM (minimal essential medium, phenol red-free, Sigma, St. Louis, Mo.) supplemented with 10% fetal bovine serum (FBS) (V/V), L-glutamine (2 mM), sodium pyruvate (1 mM), HEPES {(N-[2-hydroxyethyl]piperazine-N'-[2-ethanesulfonic acid]10 mM}, non-essential amino acids and bovine insulin (1 μg/ml) (maintenance medium). Ten days prior to assay, MCF-7 cells were switched to maintenance medium supplemented with 10% dextrancoated charcoal stripped fetal bovine serum (DCC-FBS) assay medium) in place of 10% FBS to deplete internal stores of steroids. MCF-7 cells were removed from maintenance flasks using cell dissociation medium (Ca++/Mg++ free HBSS (phenol red-free) supplemented with 10 mM HEPES and 2 mM EDTA). Cells were washed twice with assay medium and adjusted to 80,000 cells/mi. Approximately […] (8,000 cells) were added to flat-bottom microculture wells (Costar 3596) and incubated at 37° C. in a 5% CO2 humidified incubator for 48 hours to allow for cell adherence and equilibration after transfer. Serial dilutions of drugs or DMSO as a diluent control were prepared in assay medium and […] to triplicate microcultures followed by 50 ml assay medium for a final volume of […]. After an additional 48 hours at 37° C. in a 5% CO2 humidified incubator, microcultures were pulsed with tritiated thymidine (1 uCi/well) for 4 hours. Cultures were terminated by freezing at -70° C. for 24 hours followed by thawing and harvesting of microcultures. Samples were counted by liquid scintillation. Results in Table 3 below show the ED50 for certain compounds of the present invention.

serum cholesterol = assay: Serum cholesterol in ovariectomized rats (post-menopausal rat model, four day dosing); assay type: in vivo, female Sprague Dawley rats; settings: oral, daily for 4 days, decrease vs OVX control
Experimental: as §1, §2
Blood samples were allowed to clot at room temperature for 2 hours, and serum was obtained following centrifugation for 10 minutes at 3000 rpm. Serum cholesterol was determined using a Boshringer Mannheim Diagnostics high performance cholesterol assay. Briefly the cholesterol was oxidized to cholest-4-en-3-one and hydrogen peroxide. The hydrogen peroxide was then reacted with phenol and 4-aminophenazone in the presence of peroxidase to produce a p-quinone imine dye, which was read spectrophotemetrically at 500 nm. Cholesterol concentration was then calculated against a standard curve. The entire assay was automated using a Biomek Automated Workstation.
as §3, §4

Compound | change in vivo at 0.1 mg/kg (uterus) | change in vivo at 1 mg/kg (uterus) | change in vivo at 10 mg/kg (uterus) | Uterine EPO (Vmax) (eosinophil peroxidase; 0.1 mg/kg) | Uterine EPO (Vmax) (eosinophil peroxidase; 1 mg/kg) | Uterine EPO (Vmax) (eosinophil peroxidase; 10 mg/kg) | IC50 [1] | change in vivo at 0.01 mg/kg (uterus; 0.01 mg/kg) | Serum Cholesterol (% dec. OVX) (serum cholesterol; 1 mg/kg) | Serum Cholesterol (% dec. OVX) (serum cholesterol; 10 mg/kg) | Uterine EPO (Vmax) (eosinophil peroxidase; 0.01 mg/kg)
O=C(c1ccc(OCCN2CCCCC2=O)cc1)c1c(-c2ccc(O)cc2)sc2cc(O)ccc12 [Compound 3] | 13.3% | 17.8% | 57.6% | 8.0 | 7.8 | 8.9 | 600 nM | – | – | – | –
O=C(c1ccc(OCCN2CCCC2=O)cc1)c1c(-c2ccc(O)cc2)sc2cc(O)ccc12 [Compound 6] | -9% | 15.4% | 40.3% | 3.6 | 1.4 | 3.7 | – | – | – | – | –
COc1ccc(-c2sc3cc(OC)ccc3c2C(=O)c2ccc(OCC(=O)N3CCCCC3)cc2)cc1 [Compound 7] | -0.5% | -16.2% | 8.4% | 5.2 | 3.7 | 4.7 | > 1000 nM | – | – | – | –
O=C(c1ccc(OCC(=O)N2CCCC2)cc1)c1c(-c2ccc(O)cc2)sc2cc(O)ccc12 [Compound 8] | – | – | – | – | – | – | 10 nM | -22.9% | 69.6% and 39.4% | 64.5% | 3.5
O=C(c1ccc(OCC(=O)N2CCCCC2)cc1)c1c(-c2ccc(O)cc2)sc2cc(O)ccc12 [Compound 9] | -10% | 6.5% | 51.7% | 2.8 | 3.6 | 32 | 10 nM | – | – | – | –
CCCCN(C)C(=O)COc1ccc(C(=O)c2c(-c3ccc(O)cc3)sc3cc(O)ccc23)cc1 [Compound 10] | 1.5% | -6.7% | 38% | 4.3 | 3.1 | 17.0 | 50 nM | – | – | – | –
CN(C)C(=O)COc1ccc(C(=O)c2c(-c3ccc(O)cc3)sc3cc(O)ccc23)cc1 [Compound 12] | -7.7% | 15.4% | 60.7% | 3.7 | 6.7 | 122.3 | – | – | – | – | –
O=C(c1ccc(OCCN2C(=O)CCC2=O)cc1)c1c(-c2ccc(O)cc2)sc2cc(O)ccc12 [Compound 13] | 22.2% | 7.2% | -4% | 1.9 | 1.7 | 2.5 | > 1000 nM | – | – | – | –
N#CCOc1ccc(C(=O)c2c(-c3ccc(O)cc3)sc3cc(O)ccc23)cc1 [Compound 14] | 18.8% | 14.6% | 125% | 3.3 | 2.4 | 145.8 | 0.05 nM | – | – | – | –
